Measurements from article PMC8947478, “Novel, First-in-Human, Oral PCLX-001 Treatment in a Patient with Relapsed Diffuse Large B-Cell Lymphoma” (Current Oncology, 2022).
“Also recorded” adds a separate entry of the source.

What was measured:
NMT2 = molecular target: T1, NMT2 (Homo sapiens, UniProt O60551); test: Flow cytometry of intracellular NMT2 level in PBMC populations; assay type: in vivo
T1 construct: homemade monoclonal antibodies AF-700-NMT1(clone 6F8D5) and APC-NMT2 (clone 6C5E8); endogenous in cells; host or cells: patient peripheral blood mononuclear cells (CD4+, CD8+, CD19+, CD14+ populations)
T1 sequence (O60551 1-498): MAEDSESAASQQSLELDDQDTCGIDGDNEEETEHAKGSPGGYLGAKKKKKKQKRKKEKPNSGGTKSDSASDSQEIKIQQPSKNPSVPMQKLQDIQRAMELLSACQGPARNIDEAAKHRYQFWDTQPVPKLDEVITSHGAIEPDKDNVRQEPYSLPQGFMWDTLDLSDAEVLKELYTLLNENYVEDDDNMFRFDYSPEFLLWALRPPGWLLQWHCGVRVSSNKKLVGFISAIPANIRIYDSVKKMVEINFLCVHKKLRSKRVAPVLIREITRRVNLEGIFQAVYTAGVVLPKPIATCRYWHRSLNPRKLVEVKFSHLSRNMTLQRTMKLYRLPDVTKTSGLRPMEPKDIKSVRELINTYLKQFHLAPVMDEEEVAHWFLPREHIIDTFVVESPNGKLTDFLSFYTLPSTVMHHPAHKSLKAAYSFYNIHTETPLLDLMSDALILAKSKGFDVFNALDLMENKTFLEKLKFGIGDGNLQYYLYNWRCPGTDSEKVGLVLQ
Procedure: (§1) Peripheral blood was collected from the patient at each sampling point (Screen, Day 1, and Day 28 of treatment) by venipuncture according to normal phlebotomy practice in 2 × 8 mL BD Vacutainer® CPT™ Tubes. Samples were immediately mixed by gentle inversion 10 times and process for PBMC isolation within 1 h. After centrifugation (1800× g for 20 min) at room temperature (18–25 °C) in a swinging bucket rotor (swing-out head), the mononuclear cells and platelets (referred to as PBMC) were carefully collected as the whitish layer just above the polyester gel and under the plasma layer, transferred into 9 mL freezing media (8 mL Fetal Bovine Serum and 1 mL DMSO), and stored at −70 °C or below until flow cytometry analysis.
(§2) PBMC were recovered by centrifugation (400× g for 5 min), washed in RPMI culture media, resuspended in PBS, and prepared for FACS analysis. PBMC were first labeled with Zombie Aqua™ Fixable Viability kit (1/100, 20 min at 4 °C; BioLegend, San Diego, CA, USA) for exclusion of dead cells, blocked with Human TruStain FcX Fc receptor blocking solution (5/100, 10 min at room temperature, BioLegend), then stained for extracellular markers using antibodies ECD-CD3 (clone UCHT1) and PE-Cy7-CD4 (clone SFCI12T4D11) from Beckman Coulter (Missaugua, ON, Canada) PerCp-Cy5.5-CD8 (SK-1) and BV-785CD19 (clone HIB19) from BioLegend, and PE-CF594-CD14 (clone MΦPG) from BD Bioscience (Mississauga, ON, Canada) for 20 min at 4 °C. The cells were then fixed and permeabilized using the eBioscience Intracellular Fixation and Permeabilization buffer set (Invitrogen, Mississauga, ON, Canada) and stained for intracellular markers AF-488-HGAL (clone 1H1-A7, eBioscience), AF-488-Lyn (Lyn-01, ab1890, Abcam, Cambridge, UK), and homemade monoclonal antibodies AF-700-NMT1(clone 6F8D5) and APC-NMT2 (clone 6C5E8), as previously described, in parallel with relevant isotype controls for at least 30 min at 4 °C. Prior to applying in the test, intracellular antibodies were first labeled with different fluorochromes using Lightning-Link conjugation kits (Abcam) and titrated to achieve the best concentration. Finally, samples were acquired on a Fortessa X-20 flow cytometer (BD Bioscences, Faculty of Medicine and Dentistry Flow Cytometry Facility, University of Alberta). Data were analyzed using FlowJo software (TreeStar, Ashland, OR, USA, version 10.8).

HGAL [1] = test: Flow cytometry of intracellular HGAL level in PBMC populations; assay type: in vivo, human
Procedure: as §1, §2

Lyn = test system: Lyn; design: method as in PMID 33093447; conditions: multiple Burkitt Lymphoma and Diffuse Large B cell lymphoma cell lines; cited from earlier work
[2] = test system: T cells, B cells, and monocyte population; test: Flow cytometry of live PBMC populations in the treated patient; assay type: in vivo, human
Procedure: as §1, §2

[3] = test system: human cancers grown in immunodeficient mice; conditions: cited from earlier work
hERG = conditions: preclinical testing; cited from earlier work
[4] = test system: Bruton tyrosine kinase (BTK); design: method as in PMID 33093447; conditions: models of human lymphoma; cited from earlier work
[5] = animal models; cited from earlier work
HGAL [6] = test system: HGAL; design: method as in PMID 33093447; conditions: multiple Burkitt Lymphoma and Diffuse Large B cell lymphoma cell lines; cited from earlier work

Compound: Cc1c(NS(=O)(=O)c2c(Cl)cc(-c3ccnc(N4CCNCC4)c3)cc2Cl)c(CC(C)C)nn1C [PCLX-001, 2,6-dichloro-N-(3-isobutyl-1,5-dimethyl-1H-pyrazol-4-yl)-4-(2-(piperazin-1-yl)pyridin-4-yl)benzenesulfonamide]
- change of NMT2 protein level in circulating blood mononuclear cells (NMT2; 20 mg daily, 28 days, all cell populations with the exception of monocytes): no clear change; also recorded: very stable
- NMT2 intracellular level, % of population ± CV, Day 28 (NMT2; CD4+ T cells, untreated: Screening 22.8, Day 1 25.7): 35.3 ± 0.36%
- NMT2 intracellular level, % of population ± CV, Day 28 (NMT2; CD8+ T cells, untreated: Screening 11, Day 1 12.7): 18.7 ± 0.33%
- NMT2 intracellular level, % of population ± CV, Day 28 (NMT2; CD14+ Monocytes, untreated: Screening 6.21, Day 1 6.7): 11.7 ± 0.17%
- NMT2 intracellular level, % of population ± CV, Day 28 (NMT2; CD19+ B cells, untreated: Screening 31.8, Day 1 29): 33.3 ± 0.24%
- change of NMT2 protein level in monocytes (NMT2; end of the first cycle): increased
- change of HGAL protein level in circulating blood mononuclear cells (HGAL [1]; 20 mg daily, 28 days, all populations): no clear change; also recorded: no apparent trend
- HGAL intracellular level, % of population ± CV, Day 28 (HGAL [1]; CD4+ T cells, untreated: Screening 12.7, Day 1 22.1): 8.6 ± 0.58%
- HGAL intracellular level, % of population ± CV, Day 28 (HGAL [1]; CD8+ T cells, untreated: Screening 25, Day 1 30.3): 17 ± 0.63%
- HGAL intracellular level, % of population ± CV, Day 28 (HGAL [1]; CD14+ Monocytes, untreated: Screening 83.9, Day 1 87.5): 88.3 ± 0.64%
- HGAL intracellular level, % of population ± CV, Day 28 (HGAL [1]; CD19+ B cells, untreated: Screening 2.44, Day 1 11.2): 8.33 ± 0.39%
- change of HGAL expression in CD14+ monocytes (HGAL [1]; after 28 days of treatment): did not decrease
- Lyn protein level in vitro (Lyn): significantly decreased
- effect on live T cell, B cell and monocyte populations ([2]; 28 days of PCLX-001 treatment, 20 mg daily): only marginally affected
- CD19+ B cells, % of population ± CV, Day 28 ([2]; live PBMC, 28 days of 20 mg daily, untreated: Screening 0.71, Day 1 1.18): 0.59 ± 0.50%
- CD14+ monocytes, % of population ± CV, Day 28 ([2]; live PBMC, 28 days of 20 mg daily, untreated: Screening 5.01, Day 1 14.2): 4.51 ± 0.42%
- CD8+ T cells, % of population ± CV, Day 28 ([2]; live PBMC, 28 days of 20 mg daily, untreated: Screening 25.1, Day 1 23.1): 22.5 ± 0.31%
- CD4+ T cells, % of population ± CV, Day 28 ([2]; live PBMC, 28 days of 20 mg daily, untreated: Screening 40.2, Day 1 42.5): 46.8 ± 0.22%
- Total T cells (CD3+), % of population ± CV, Day 28 ([2]; live PBMC, 28 days of 20 mg daily, untreated: Screening 66.6, Day 1 66.7): 70.1 ± 0.50%
- response in solid cancers [3]: tumour responses
- response of human cancers grown in immunodeficient mice [3]: complete remissions
- hERG interaction (hERG): no significant hERG interaction
- BTK modification and downstream signaling [4]: profoundly inhibited
- oral bioavailability [5]: complete oral bioavailability
- HGAL protein level in vitro (HGAL [6]): significantly decreased
